Source: article PMC5040747, “Preparation and Evaluation of a Novel Class of Amphiphilic Amines as Antitumor Agents and Nanocarriers for Bioactive Molecules” (Pharmaceutical Research, 2016)

Tests used:
[1] = test system: adult tumor cell lines (A549, MDA-MB-231, WiDr); assay: MTT cell killing, adult tumor cell lines (summary); type: cell-based; details: Homo sapiens, summary of Table II
Protocol: Cells were plated in 96-well tissue culture plates at a density of 1 × 10^3 cells/well, allowed to attach 24 h, and then left untreated or treated with growth medium containing different concentrations of the tested RCn compounds previously dissolved in PBS. After different time periods the cell vitality was determined by MTT assay according to the manufacture’s instruction (Promega). Results are reported as the micromolar concentration of RCn reducing cell survival to 50% (IC50).

[2] = test system: SH-SY5Y cells; assay: Caspase activation (western blot, fluorimetric assay); type: cell-based
Protocol: Cells with or without RCn treatment were washed with PBS and lysed on ice for 30 min in lysis buffer containing protease and phosphatase inhibitors. Protein concentrations were determined with the Bio-Rad protein assay kit. 50 μg of total protein was separated on 12% SDS-PAGE at 100 V for 1 h and then transferred onto a nitrocellulose membrane using a wet blotting apparatus (Bio-Rad Laboratories) at 20 V overnight. Proteins were detected by enhanced chemiluminescence detection reagents (Amersham Biosciences). The antibodies used for immunoblotting were: caspases 3, 8, 9, and PARP were diluted 1:100 in blocking reagent (Cell Signaling Technology). The exposure time was the same for all the antibodies. Blots were stripped and reprobed with anti-β-tubulin diluted 1:10,000 in blocking reagent (Santacruz Biotechnology) used as the loading control.
Detection of caspase activity was evaluated by ApoFluor Green Apoptosis Detection kits specific for: caspase-1 and caspase-4; caspase-2, caspase-3 and caspase-7; caspase-6, caspase-8, caspase-9, caspase-10, and caspase-13 (MP Biochemicals), according to the manufacturer’s instructions. […] After 1 h incubation samples were washed and analyzed by flow cytometry (FACScan, Becton Dickinson) equipped with a 15-mW argon ion laser at 488 nm ([16]).

[3] = Maximum tolerated dose in mice; details: female, mouse, in vivo; single intravenous injection, non-tumor bearing athymic nude mice
Protocol: To determine the MTD, a standard assay dose escalation study was performed. Non-tumor bearing, female, athymic nude mice were injected once with RC16 by the tail vein starting with 0.5 mg/kg. The doses were escalated by 0.25 mg/kg until MTD was achieved. Following convention, each dose was tested on a cohort of 5 mice in individual independent experiments. MTD was defined as the highest dose that could be given resulting in no drug-related moribund state or death or body weight loss ≥ 20% in the first 7 days. Other signs of toxicity such as unusual mouse behavior, lack of movement and poor posture were also monitored. Mice were weighed and observed 3 times per week for any signs of toxicity.

[4] = test system: nude mice bearing CHLA-20 tumors; assay: Biodistribution study (IVIS imaging); type: in vivo, mouse; details: RC16 labelled with Cell-Vue Maroon
Protocol: A pilot biodistribution study using one animal per timepoint was performed to minimize the number of experimental animals. Female athymic nude mice were subcutaneously implanted with 5.0 × 10^6 CHLA-20 cells. When tumors became palpable (approximately 5 mm in diameter), mice were treated with i.v. injections of RC16 labelled with Cell-Vue Maroon (dye:RC16, 1:100 mol:mole) at a dose of 1 mg/kg. […] The mice were then humanely euthanized by CO2 asphyxiation. Organs were removed, weighed and used for quantitative optical imaging by the IVIS system.

## CCCCCCCCCCCCCCC1CN2CCCN3CCCCCC132 (stereo not drawn) [RC16, 2-tetradecyl-4,8-diazatricyclo[6.5.0.0^1,^4]tridecane]
[1]
  IC50: 1 to 10 µM
[2]; 5 μM RC16, 1-24 h
  Caspase activation, fluorimetric assay (caspases 1, 2, 3, 6, 8, 9, 10, 13): all the above caspases were activated already at 4 h
[2]; 5 μM RC16, 2-36 h
  Caspase activation, western blot: activation of caspases 3, 8 and 9
[3]
  MTD at 7 days: 4 mg/kg
[4]; 1 mg/kg i.v., 12, 24 and 48 h
  Organ fluorescence intensity (biodistribution): stomach, intestine and liver showed the highest fluorescence intensity
[4]; 1 mg/kg i.v., CHLA-20 tumors
  RC16 level in tumors over time: remained constant over time
